System: 313798-341-R-J2-PDC spheroids, viability
Experiment: Anticancer human tumor 313798-341-R-J2-PDC patient-derived cervical squamous cell carcinoma cell line growth inhibition [PI3K]
Details: spheroids with HUVEC and MSC; for IC50: curve of first compound; for viability, T/C: stronger effect = lower value
Outline: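 Stroma-containing spheroids: tumor line, pooled-donor HUVEC, hMSC. Treatments: targeted agents with PI3K inhibitors. Dosing: clinically relevant, half-log spacing, 10 microM ceiling without known Cmax. Read-out: cell viability.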
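Further: spheroids exposed to compounds for seven days.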
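Wherever viability, T/C is given: 100% = DMSO vehicle control viability.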

## Cn1cnc2c(F)c(Nc3ccc(Br)cc3Cl)c(C(=O)NOCCO)cc21 + Cc1nc(NC(=O)N2CCCC2C(N)=O)sc1-c1ccnc(C(C)(C)C(F)(F)F)c1
Second compound 0.0316 µM
  IC50: > 3 µM
Second compound 0.1 µM
  IC50: > 3 µM
Second compound 0.316 µM
  IC50: > 3 µM
Second compound 1 µM
  IC50: 2.79 µM
Second compound 3.16 µM
  IC50: 0.1 µM
Second compound 10 µM
  IC50: < 0.00949 µM
Second compound 0.0316 µM, first compound 0.00949 µM
  viability, T/C: 98.8%
Second compound 0.0316 µM, first compound 0.03 µM
  viability, T/C: 95.7%
Second compound 0.0316 µM, first compound 0.0949 µM
  viability, T/C: 95.7%
Second compound 0.0316 µM, first compound 0.3 µM
  viability, T/C: 98.7%
Second compound 0.0316 µM, first compound 0.949 µM
  viability, T/C: 98.6%
Second compound 0.0316 µM, first compound 3 µM
  viability, T/C: 81.5%
Second compound 0.1 µM, first compound 0.00949 µM
  viability, T/C: 105%
Second compound 0.1 µM, first compound 0.03 µM
  viability, T/C: 102%
Second compound 0.1 µM, first compound 0.0949 µM
  viability, T/C: 98%
Second compound 0.1 µM, first compound 0.3 µM
  viability, T/C: 107%
Second compound 0.1 µM, first compound 0.949 µM
  viability, T/C: 99.4%
Second compound 0.1 µM, first compound 3 µM
  viability, T/C: 83.7%
Second compound 0.316 µM, first compound 0.00949 µM
  viability, T/C: 109%
Second compound 0.316 µM, first compound 0.03 µM
  viability, T/C: 99.7%
Second compound 0.316 µM, first compound 0.0949 µM
  viability, T/C: 98.6%
Second compound 0.316 µM, first compound 0.3 µM
  viability, T/C: 100%
Second compound 0.316 µM, first compound 0.949 µM
  viability, T/C: 92.6%
Second compound 0.316 µM, first compound 3 µM
  viability, T/C: 70.9%
Second compound 1 µM, first compound 0.00949 µM
  viability, T/C: 84%
Second compound 1 µM, first compound 0.03 µM
  viability, T/C: 79.1%
Second compound 1 µM, first compound 0.0949 µM
  viability, T/C: 71.4%
Second compound 1 µM, first compound 0.3 µM
  viability, T/C: 76.5%
Second compound 1 µM, first compound 0.949 µM
  viability, T/C: 68.7%
Second compound 1 µM, first compound 3 µM
  viability, T/C: 48.4%
Second compound 3.16 µM, first compound 0.00949 µM
  viability, T/C: 55.3%
Second compound 3.16 µM, first compound 0.03 µM
  viability, T/C: 50.3%
Second compound 3.16 µM, first compound 0.0949 µM
  viability, T/C: 50.7%
Second compound 3.16 µM, first compound 0.3 µM
  viability, T/C: 47.5%
Second compound 3.16 µM, first compound 0.949 µM
  viability, T/C: 39.9%
Second compound 3.16 µM, first compound 3 µM
  viability, T/C: 32.8%
Second compound 10 µM, first compound 0.00949 µM
  viability, T/C: 32.2%
Second compound 10 µM, first compound 0.03 µM
  viability, T/C: 25.8%
Second compound 10 µM, first compound 0.0949 µM
  viability, T/C: 23%
Second compound 10 µM, first compound 0.3 µM
  viability, T/C: 24.3%
Second compound 10 µM, first compound 0.949 µM
  viability, T/C: 17.1%
Second compound 10 µM, first compound 3 µM
  viability, T/C: 10.4%

## CC(C)n1nc(-c2ccc3oc(N)nc3c2)c2c(N)ncnc21 + Cc1nc(NC(=O)N2CCCC2C(N)=O)sc1-c1ccnc(C(C)(C)C(F)(F)F)c1
Second compound 0.0316 µM
  IC50: 0.059 µM
Second compound 0.1 µM
  IC50: 0.0596 µM
Second compound 0.316 µM
  IC50: 0.0466 µM
Second compound 1 µM
  IC50: 0.0255 µM
Second compound 3.16 µM
  IC50: 0.00422 µM
Second compound 10 µM
  IC50: < 0.000316 µM
Second compound 0.0316 µM, first compound 0.000316 µM
  viability, T/C: 91.6%
Second compound 0.0316 µM, first compound 0.001 µM
  viability, T/C: 96%
Second compound 0.0316 µM, first compound 0.00316 µM
  viability, T/C: 107%
Second compound 0.0316 µM, first compound 0.01 µM
  viability, T/C: 94.6%
Second compound 0.0316 µM, first compound 0.0316 µM
  viability, T/C: 67.5%
Second compound 0.0316 µM, first compound 0.1 µM
  viability, T/C: 35.3%
Second compound 0.1 µM, first compound 0.000316 µM
  viability, T/C: 100%
Second compound 0.1 µM, first compound 0.001 µM
  viability, T/C: 93.6%
Second compound 0.1 µM, first compound 0.00316 µM
  viability, T/C: 96.9%
Second compound 0.1 µM, first compound 0.01 µM
  viability, T/C: 91.1%
Second compound 0.1 µM, first compound 0.0316 µM
  viability, T/C: 66.5%
Second compound 0.1 µM, first compound 0.1 µM
  viability, T/C: 36.5%
Second compound 0.316 µM, first compound 0.000316 µM
  viability, T/C: 98.6%
Second compound 0.316 µM, first compound 0.001 µM
  viability, T/C: 91.6%
Second compound 0.316 µM, first compound 0.00316 µM
  viability, T/C: 97.8%
Second compound 0.316 µM, first compound 0.01 µM
  viability, T/C: 76.8%
Second compound 0.316 µM, first compound 0.0316 µM
  viability, T/C: 56.6%
Second compound 0.316 µM, first compound 0.1 µM
  viability, T/C: 39%
Second compound 1 µM, first compound 0.000316 µM
  viability, T/C: 92%
Second compound 1 µM, first compound 0.001 µM
  viability, T/C: 84.2%
Second compound 1 µM, first compound 0.00316 µM
  viability, T/C: 77.3%
Second compound 1 µM, first compound 0.01 µM
  viability, T/C: 64.4%
Second compound 1 µM, first compound 0.0316 µM
  viability, T/C: 46%
Second compound 1 µM, first compound 0.1 µM
  viability, T/C: 30%
Second compound 3.16 µM, first compound 0.000316 µM
  viability, T/C: 63.9%
Second compound 3.16 µM, first compound 0.001 µM
  viability, T/C: 55.1%
Second compound 3.16 µM, first compound 0.00316 µM
  viability, T/C: 54.2%
Second compound 3.16 µM, first compound 0.01 µM
  viability, T/C: 43.5%
Second compound 3.16 µM, first compound 0.0316 µM
  viability, T/C: 34.5%
Second compound 3.16 µM, first compound 0.1 µM
  viability, T/C: 21.4%
Second compound 10 µM, first compound 0.000316 µM
  viability, T/C: 35.2%
Second compound 10 µM, first compound 0.001 µM
  viability, T/C: 32.2%
Second compound 10 µM, first compound 0.00316 µM
  viability, T/C: 30.9%
Second compound 10 µM, first compound 0.01 µM
  viability, T/C: 25.1%
Second compound 10 µM, first compound 0.0316 µM
  viability, T/C: 23.9%
Second compound 10 µM, first compound 0.1 µM
  viability, T/C: 14.4%

— PubChem BioAssay AID1963982 (Molecular Pharmacology Branch, DTP, NCI, 2024)
